Measured values reported in ChEMBL document CHEMBL1697731, “Cheminformatics analysis of assertions mined from literature that describe drug-induced liver injury in different species” (Chem Res Toxicol, 2010).

Columns and labels:
Hepatotoxicity [1] = experiment: Literature-mined compound from Fourches et al multi-species drug-induced liver injury (DILI) dataset, effect in humans; settings: human
Hepatotoxicity [2] = experiment: Literature-mined compound from Fourches et al multi-species drug-induced liver injury (DILI) dataset, effect in rodents; settings: rodentia
Hepatotoxicity [3] = experiment: Literature-mined compound from Fourches et al multi-species drug-induced liver injury (DILI) dataset, effect in non-rodents

Compound	Hepatotoxicity (Hepatotoxicity [1])	Hepatotoxicity (Hepatotoxicity [2])	Hepatotoxicity (Hepatotoxicity [3])	Hepatotoxicity (Hepatotoxicity [1]; Liver)	Hepatotoxicity (Hepatotoxicity [2]; Liver)	Hepatotoxicity (Hepatotoxicity [3]; Liver)
CC[C@]1(O)C[C@H]2CN(CCc3c([nH]c4ccccc34)[C@@](C(=O)OC)(c3cc4c(cc3OC)N(C=O)[C@H]3[C@@](O)(C(=O)OC)[C@H](OC(C)=O)[C@]5(CC)C=CCN6CC[C@]43[C@@H]65)C2)C1 [VINCRISTINE]	drug-induced liver injury reported	drug-induced liver injury reported	drug-induced liver injury reported	–	–	–
COC(=O)N[C@H](C(=O)N[C@@H](Cc1ccccc1)[C@@H](O)CN(Cc1ccc(-c2ccccn2)cc1)NC(=O)[C@@H](NC(=O)OC)C(C)(C)C)C(C)(C)C [ATAZANAVIR]	drug-induced liver injury reported	no drug-induced liver injury reported	no drug-induced liver injury reported	–	–	–
CC1CCC(C(C)C)C(O)C1 (configuration not stated) [MENTHOL]	drug-induced liver injury reported	no drug-induced liver injury reported	no drug-induced liver injury reported	–	–	–
GADOBENATE DIMEGLUMINE	drug-induced liver injury reported	no drug-induced liver injury reported	no drug-induced liver injury reported	–	–	–
O=C(O)CCCc1ccc(N(CCCl)CCCl)cc1 [CHLORAMBUCIL]	drug-induced liver injury reported	drug-induced liver injury reported	no drug-induced liver injury reported	–	–	–
CCCCCCC(=O)O[C@H]1CC[C@H]2[C@@H]3CCC4=CC(=O)CC[C@]4(C)[C@H]3CC[C@]12C [TESTOSTERONE ENANTHATE]	no drug-induced liver injury reported	drug-induced liver injury reported	no drug-induced liver injury reported	–	–	–
CCN(CC)CCNC(=O)c1cc(Cl)c(N)cc1OC [METOCLOPRAMIDE]	drug-induced liver injury reported	drug-induced liver injury reported	no drug-induced liver injury reported	–	–	–
CO[C@@H]1[C@@H](OC(N)=O)[C@@H](O)[C@H](Oc2ccc3c(O)c(NC(=O)c4ccc(O)c(CC=C(C)C)c4)c(=O)oc3c2C)OC1(C)C [NOVOBIOCIN]	drug-induced liver injury reported	drug-induced liver injury reported	no drug-induced liver injury reported	–	–	–
Cc1cc2c(cc1CC(=O)c1sccc1S(=O)(=O)Nc1onc(C)c1Cl)OCO2 [SITAXENTAN]	drug-induced liver injury reported	no drug-induced liver injury reported	no drug-induced liver injury reported	–	–	–
COc1cc(C2Oc3cc([C@H]4Oc5cc(O)cc(O)c5C(=O)[C@@H]4O)ccc3OC2CO)ccc1O (some centres not stated) [SILIBININ]	drug-induced liver injury reported	drug-induced liver injury reported	no drug-induced liver injury reported	–	–	–
CC(C)(C)NC(=O)[C@@H]1C[C@@H]2CCCC[C@@H]2CN1C[C@@H](O)[C@H](Cc1ccccc1)NC(=O)[C@H](CC(N)=O)NC(=O)c1ccc2ccccc2n1	–	–	–	drug-induced liver injury reported	no drug-induced liver injury reported	no drug-induced liver injury reported
COc1c(C)c2c(c(O)c1C/C=C(\C)CCC(=O)OCCN1CCOCC1)C(=O)OC2 [MYCOPHENOLATE MOFETIL]	drug-induced liver injury reported	no drug-induced liver injury reported	no drug-induced liver injury reported	–	–	–
CC1=C(/C=C/C(C)=C\C=C\C(C)=C\C(=O)O)C(C)(C)CCC1 [ALITRETINOIN]	drug-induced liver injury reported	drug-induced liver injury reported	no drug-induced liver injury reported	–	–	–
COc1cc2c(cc1O)CC[C@@H]1[C@@H]2CC[C@]2(C)[C@@H](O)CC[C@@H]12 [2-METHOXYESTRADIOL]	drug-induced liver injury reported	drug-induced liver injury reported	no drug-induced liver injury reported	–	–	–
